Test results from publication PMC8333425, “Discovery of a dual Ras and ARF6 inhibitor from a GPCR endocytosis screen” (Nature Communications, 2021).
Several values for one entry are separate records, joined by “and”; a condition that tells them apart may be missing. Identical values can stand only once.

How the values were obtained:
Assay in all cases: Ras BRET sensor in cells overexpressing K-Ras mutants (Y32A, Y40A, Y32A/Y40A) and AT1R
[1] = biological target: T1, K-Ras Y32A, Y40A, Y32A/Y40A (Homo sapiens, UniProt P01116, Y32A/Y40A); assay type: cell-based; conditions: Rasarfin 50 μM, K-Ras Y32A/Y40A, Bonferroni's multiple comparisons test
T1 construct: expressed in transfected cells; host or cells: HEK293SL
Text: (§1) Because Tyr32 and Tyr40, located on the switch I domain of Ras, are critical for stabilizing Rasarfin binding through interactions with both the chlorine and isopropyl moiety (Fig. 7a, c), we reasoned that substituting them for Ala residues would negatively impact Rasarfin’s inhibitory action on Ras. […] Because we wanted to assess the inhibitory action of Rasarfin over different Ras subtypes, we mutated the two tyrosine residues to an alanine in K-Ras (Y32A, Y40A, and Y32A/Y40A mutants) within the same Rasarfin binding site found in H-Ras (Lys^5-Thr^74). This domain and residues are perfectly conserved among the Ras family members[44],[45]. WT K-Ras and K-Ras mutants were overexpressed along with AT1R in cells and AngII-mediated activation of Ras was assessed using the Ras BRET sensor (Supplementary Fig. 11a).
(§2) HEK293SL cells were seeded at a density of 7.5 × 10^5 cells per 100-mm dish and 24 h later, transiently transfected as such. For receptor internalization experiments, cells were transfected with 0.12 μg AT1R-RlucII, B2R-RlucII, or β2AR-RlucII and 0.48 μg of either rGFP-CAAX (to assess removal from the PM) or rGFP-FYVE (to assess accumulation in the endosomes). For β-arrestin recruitment assays, cells were transfected with 0.48 μg of receptor-YFP along with 0.12 μg of β-arrestin-RlucII. For β-arrestin/AP-2 binding experiments, cells were transfected with 1 μg Flag-AT1R, 1 μg β2-Adaptin-YFP, and 0.12 μg β-arrestin2-RlucII. For G protein activation, cells were transfected with 3 μg of sp-Flag-AT1R along with either 4.5 μg of the Gαq-polycistronic BRET sensor or 0.24 μg of the Gαi3-RlucII and 0.6 μg of GFP10-Gγ2 and Gβ1 sensors or 0.12 μg PKN-RBD-RlucII and 0.48 μg of rGFP-CAAX. For PKC activation, cells were transfected with 3 μg of sp-Flag-AT1R and 0.18 μg of the PKC sensor. For GTPase activation experiments, cells were transfected with 1 μg Flag-AT1R, 0.48 μg of rGFP-CAAX, and either 0.12 μg of GGA3-PBD-RlucII, PAK-CRIB-RlucII or Raf-RBD-RlucII. For biosensor validation experiments, cells were additionally transfected with 500 ng Flag-K-Ras-WT, Flag-K-Ras-G12V, Flag-K-Ras-SOS-CAAX, HA-ARF6-WT, HA-ARF6-T27N, Myc-Rac1-WT, Myc-Rac1-Q61L or Myc-Rac1-T17N. For PI3K/Akt activation experiments, cells were transfected with 0.48 μg of rGFP-CAAX and 0.12 μg of Akt (PH)-RlucII. After 18 h of transfection, the media was replaced and cells were divided for subsequent experiments. Cells were detached and seeded onto poly-L-ornithine-coated 96-well flat white bottom plates (BrandTech Scientific) at a density of 2.5 × 10^4 cells per well in media. The next day, cells were washed once with Tyrode’s buffer (140 mM NaCl, 2.7 mM KCl, 1 mM CaCl2, 12 mM NaHCO3, 5.6 mM D-glucose, 0.5 mM MgCl2, 0.37 mM NaH2PO4, 25 mM HEPES, pH 7.4) and left in Tyrode’s buffer. For kinetics of β-arrestin recruitment or β-arrestin binding to receptor and AP-2 experiments, cells were serum starved for 30 min, pretreated with 21 (50 µM) or Barbadin (100 µM) for 30 min, stimulated with 100 nM AngII or 1 µM BK and BRET signals were monitored at indicated times using a Victor X Light plate reader (PerkinElmer). Coelenterazine H (final concentration of 5 µM) was added 3–5 min prior to BRET measurements. Filter set was 460/80 nm and 535/30 nm for detecting the RlucII Renilla luciferase (donor) and YFP (acceptor) light emissions, respectively. The BRET ratio was determined by calculating the ratio of the light emitted by YFP over the light emitted by the RlucII. For G protein activation, cells were serum starved, pretreated with compounds for 30 min, stimulated with 100 nM AngII for 2 min (Gαq, Gαi3, and Rho sensors) or 5 min (PKC sensor). For the kinetics of GTPase and PI3K/Akt activation, cells were serum starved, pretreated with 21 (50 µM) or Wortmannin (200 nM) for 30 min, stimulated with ligand (100 nM AngII or 100 ng/ml EGF) and BRET signals were monitored at indicated times. […]

[2] = biological target: T2, K-Ras Y32A, Y40A, Y32A/Y40A (Homo sapiens, UniProt P01116, Y32A); assay type: cell-based; conditions: Rasarfin 50 μM, K-Ras Y32A
T2 construct: expressed in transfected cells; host or cells: HEK293SL
Text: as §1, §2

[3] = tested on: K-Ras Y32A, Y40A, Y32A/Y40A; assay type: cell-based, human; conditions: 50 μM
Text: as §1, §2

CC(C)C(=O)N1CCN(c2ccc(NC(=O)c3cc4ccccc4o3)cc2Cl)CC1 [Compound 21]
AngII-promoted BRET, Mean Diff. DMSO - Rasarfin [1]: 0.004167
AngII-promoted BRET [2]: 0.1037 and 0.088 and 0.0995 and 0.056
AngII-promoted BRET, Mean Diff. DMSO - Rasarfin ([2]; Bonferroni's multiple comparisons test): 0.006083
AngII-mediated activation of K-Ras Y32A, Y40A, Y32A/Y40A mutants (Ras BRET sensor) [3]: only WT was significantly inhibited by Rasarfin
